Measured values published in patent US7887850B2, “Method for reducing pathogens in the gastrointestinal tract of poultry and other food animals” (Ecolab Inc., priority 2004, dated 2011).

System: broilers
Description: A total of 320 broilers (35 days of age) were randomly allocated to 64 pens (5 birds/pen). […] All solutions were prepared and replaced twice a day, and all birds were given free access to the solutions. Water intake, feed consumption, weight gain, and mortality was monitored during the seven day experimental period.

Q: What does the source list for O=C(O)CC(O)(CC(=O)O)C(=O)O [citric acid]?
A: levels that did not affect live performance (broilers, drinking water, seven days, percent by weight): up to 0.4%; differences in mortality during the experiment (chicken (broilers), in vivo): No significant (P>0.05) differences; response of daily and 7-day water consumption to graded levels in the water (in vivo): Linear and quadratic responses
